Each block holds one molecule with its values, some of them ahead of it.
Key:
[1] = system: cancer patients having progressive disease; conditions: patients having progressive disease before treatment; cited from earlier work
β-glucuronidase (GUS) = biological target: T1, β-glucuronidase (GUS) (Escherichia coli, UniProt P05804); test: Enzymatic activity of the GUS portion; type: biochemical, E. coli
T1 construct: made in house; host or cells: E. coli M15 cells
From the text: The 6-His GUS was pure based upon SDS-PAGE, where it ran as a single band of 75 kDa band. On gel filtration columns, the 6-His GUS runs as a tetramer of about 300 kDa.
The biological activity of each component of the 2C3-GUS conjugate was confirmed.

[2] = Blood clearance of radioiodinated 2C3-GUS; type: in vivo; conditions: mice, intravenous injection, 125I-labelled
From the text: 2C3-GUS was radioiodinated with ^125I to a specific activity of 5×10^6 cpm/μg.

[3] = system: human NCI-H358 NSCLC tumors; type: in vivo, SCID mice
VEGFR1 = VEGFR1 (Homo sapiens, UniProt P17948); conditions: read-out: Kd of VEGF binding to VEGFR1; Terman et al., 1994; cited from earlier work
Sequence of VEGFR1 (P17948 27-1338): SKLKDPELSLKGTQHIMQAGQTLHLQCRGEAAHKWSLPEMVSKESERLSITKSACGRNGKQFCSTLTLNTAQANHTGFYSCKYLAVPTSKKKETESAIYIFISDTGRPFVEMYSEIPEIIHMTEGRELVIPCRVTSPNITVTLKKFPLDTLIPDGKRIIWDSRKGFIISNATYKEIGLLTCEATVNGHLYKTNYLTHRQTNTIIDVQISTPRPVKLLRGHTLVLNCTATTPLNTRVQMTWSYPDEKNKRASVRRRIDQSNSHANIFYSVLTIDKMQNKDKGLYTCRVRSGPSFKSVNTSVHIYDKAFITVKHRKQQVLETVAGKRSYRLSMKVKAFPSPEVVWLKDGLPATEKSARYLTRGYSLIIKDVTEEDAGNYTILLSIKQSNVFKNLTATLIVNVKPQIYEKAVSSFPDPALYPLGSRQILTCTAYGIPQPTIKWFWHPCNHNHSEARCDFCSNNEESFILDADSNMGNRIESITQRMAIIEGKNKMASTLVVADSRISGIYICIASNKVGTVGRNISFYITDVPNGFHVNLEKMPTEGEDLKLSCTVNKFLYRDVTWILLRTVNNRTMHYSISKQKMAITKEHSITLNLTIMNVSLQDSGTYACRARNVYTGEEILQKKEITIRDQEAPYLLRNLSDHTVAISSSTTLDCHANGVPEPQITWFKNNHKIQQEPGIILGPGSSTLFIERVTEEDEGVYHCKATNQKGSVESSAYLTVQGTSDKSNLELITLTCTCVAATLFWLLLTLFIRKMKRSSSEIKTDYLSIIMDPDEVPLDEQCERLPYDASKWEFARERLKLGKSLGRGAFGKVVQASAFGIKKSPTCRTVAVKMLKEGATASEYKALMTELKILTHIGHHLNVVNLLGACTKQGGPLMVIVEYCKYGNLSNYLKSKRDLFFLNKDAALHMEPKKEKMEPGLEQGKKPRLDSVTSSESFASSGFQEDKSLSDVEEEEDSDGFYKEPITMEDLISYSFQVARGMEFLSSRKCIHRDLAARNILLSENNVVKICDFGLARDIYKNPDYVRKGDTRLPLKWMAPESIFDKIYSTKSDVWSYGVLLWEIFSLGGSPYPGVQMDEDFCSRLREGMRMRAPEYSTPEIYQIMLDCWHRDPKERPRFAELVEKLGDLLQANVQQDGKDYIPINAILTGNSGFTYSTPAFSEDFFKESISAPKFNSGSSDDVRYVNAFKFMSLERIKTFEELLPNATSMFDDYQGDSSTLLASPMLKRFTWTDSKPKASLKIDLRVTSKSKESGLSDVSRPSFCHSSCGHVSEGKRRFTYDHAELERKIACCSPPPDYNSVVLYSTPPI

VEGFR2 (KDR/Fc) = test: Coprecipitation assay, VEGFR2/Fc; type: binding; conditions: 40 ng VEGF, 200 ng receptor/Fc
Experimental: 200 ng of soluble forms of VEGFR1 (Flt-1/Fc) or VEGFR2 (KDR/Fc, R&D Systems, Minneapolis, Minn.) were added for a total volume of 50 μl and incubated for 2 hrs. The receptor/Fc constructs were precipitated using Protein A-sepharose beads and the resulting precipitate was washed 4 times with binding buffer.
Reducing sample buffer was added to the pellet and supernatant of each reaction and both were analyzed by 12% SDS-PAGE and transferred to PVDF membranes. […] The soluble receptor/Fc constructs were also detected by using peroxidase-conjugated goat anti-human Fc (Kirkegaard & Perry Laboratories, Inc.)
The receptor/Fc constructs were precipitated by incubation with Protein A sepharose beads. The precipitate was washed and resuspended in reducing sample buffer and separated by 12% SDS-PAGE and transferred to PVDF.

T1 sequence (P05804 whole entry): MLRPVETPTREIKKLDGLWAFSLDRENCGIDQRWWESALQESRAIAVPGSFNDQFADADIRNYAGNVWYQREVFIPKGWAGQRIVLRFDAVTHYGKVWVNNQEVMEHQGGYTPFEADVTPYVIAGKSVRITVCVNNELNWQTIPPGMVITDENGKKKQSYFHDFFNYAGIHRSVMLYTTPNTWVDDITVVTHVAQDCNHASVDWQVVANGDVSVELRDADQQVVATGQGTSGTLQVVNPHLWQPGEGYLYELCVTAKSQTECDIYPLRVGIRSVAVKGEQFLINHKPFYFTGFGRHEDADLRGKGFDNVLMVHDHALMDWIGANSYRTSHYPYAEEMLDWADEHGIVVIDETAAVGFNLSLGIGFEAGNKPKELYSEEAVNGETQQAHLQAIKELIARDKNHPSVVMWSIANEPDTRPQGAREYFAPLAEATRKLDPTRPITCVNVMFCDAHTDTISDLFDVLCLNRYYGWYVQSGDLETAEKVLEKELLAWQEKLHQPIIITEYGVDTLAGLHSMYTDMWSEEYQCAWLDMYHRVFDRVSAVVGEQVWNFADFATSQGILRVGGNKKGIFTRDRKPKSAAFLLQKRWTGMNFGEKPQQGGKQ

Molecule: NC(=O)c1nnn(Cc2cc(Cl)c(C(=O)c3ccc(Cl)cc3)c(Cl)c2)c1N [CAI, carboxyamidotriazole]
Disease stabilization, share of cancer patients [1]: 49%

Molecule: 2C3-GUS [Clone 2C3-GUS]
Enzymatic activity of the GUS portion (β-glucuronidase (GUS)): retained enzymatic activity
t½ α [2]: about 6 hours
t½ β [2]: about 25 hours
Localization after i.v. injection ([3]; SCID mice bearing subcutaneous NCI-H358): specifically localized to tumor vasculature and surrounding tumor stroma
Staining of normal tissues ([3]; mouse, in vivo): unstained
Time of maximal localization after injection ([3]; mouse, in vivo, sc): 24 to 48 h

Molecule: VEGF
Kd (VEGFR1): 0.015 to 0.1 nM

Blocking of VEGF binding to VEGFR2/Fc in solution (VEGFR2 (KDR/Fc)): blocked
Molecule: 2C3 F(ab′)2: F(ab′)2 of 2C3

— US6342219B1 (Board of Regents, The University of Texas System, priority 1999, dated 2002)
